How the values were obtained:
[1] = biological target: T1, USP7, Active human recombinant protein (Homo sapiens, UniProt Q93009); assay: USP7 assay (Ubiquitin-Rhodamine 110 enzymatic assay); format: biochemical; conditions: read-out: IC50
T1 construct: purchased CP Lot; 20200225001
In short: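 Kinetic 20-min fluorescence read (485/535 nm) of ubiquitin-rhodamine 110 (190 nM final) cleavage by 0.05 nM USP7 gave slopes. Compounds, 10 concentrations in 3-fold steps, had 15 min RT preincubation with enzyme first. Inhibition relative to max (enzyme+substrate) and min (substrate only) signals, fitted to IC50.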

[2] = mouse liver microsomal stability (Microsome Assay Protocol); format: in vitro ADME; conditions: pH 7.4; mouse liver microsomes, NADPH, 37° C.; read-out: MLM t1/2, min
Method: (§1) ND refers to not disclosed.
• 1. Buffer A: 1.0 L of 0.1 M monobasic Potassium Phosphate buffer containing 1.0 mM EDTA Buffer B: 1.0 L of 0.1 M Dibasic Potassium Phosphate buffer containing 1.0 mM EDTA • Buffer C: 0.1 M Potassium Phosphate buffer, 1.0 mM EDTA, pH 7.4 by titrating 700 mL of buffer B with buffer A while monitoring with a pH meter. • 2. Reference compound (Ketanserin) and test compounds spiking solution: • 500 μM spiking solution: added 10 μL of 10 mM DMSO stock solution into 190 μL ACN. • 1.5 μM spiking solution in microsomes (0.75 mg/mL): added 1.5 μL of 500 μM spiking solution and 18.75 μL of 20 mg/mL liver microsomes into 479.75 μL of Buffer C on ice. • 3. Prepared NADPH stock solution (6 mM) by dissolving NADPH into buffer C. Dispensed 30 μL of 1.5 μM spiking solution containing 0.75 mg/mL microsomes solution to the assay plates designated for different time points (0-, 5-, 15-, 30-, 45-min) on ice. For 0-min, added 135 μL of ACN containing IS to the wells of 0-min plate and then added 15 μL of NADPH stock solution (6 mM). Pre-incubated all other plates at 37° C. for 5 minutes. Added 15 μL of NADPH stock solution (6 mM) to the plates to start the reaction and timing. At 5-min, 15-min, 30-min, and 45-min, added 135 μL of ACN containing IS to the wells of corresponding plates, respectively, to stop the reaction. After quenching, shook the plates at the vibrator (IKA, MTS 2/4) for 10 min (600 rpm/min) and then centrifuged at 5594 g for 15 min (Thermo Multifuge×3R). Transferred 50 μL of the supernatant from each well into a 96-well sample plate containing 50 μL of ultra pure water (Millipore, ZMQS50F01) for LC/MS analysis.

[3] = plasma stability (Plasma Assay Protocol); format: in vitro ADME; conditions: 37° C., t1/2 extrapolated if >50% remaining at 60 min, ∞ if near 100% remaining
Method: as §1
• 1. Preheated 0.05 M sodium phosphate and 0.07 M NaCl buffer, pH 7.4. Dissolved 14.505 g/L Na2HPO4·12H2O, 1.483 g/L NaH2PO4·2H2O and 4.095 g/L NaCl in deionized water. The basic solution was then titrated with the phosphoric acid to pH 7.40. Stored in fridge up to 7 days. Checked pH on the day of experiment and adjust if outside specification of 7.4+/−0.1. • 2. Plasma preparation: • Thawed frozen plasma by placing at 37° C. quickly. Centrifuged plasma at 3,000 rpm for 8 minutes to remove clots, pipetted and pooled the supernatant as the plasma to be used in the experiment. Checked and recorded the pH of the plasma. Only used plasma within the range of pH 7.4 to pH 8. If higher than pH 8, discarded the plasma. By using a 5% CO2 incubator and PBS buffer, a pH of 7.4 was reached after the 4 hour equilibrium dialysis time. Put the plasma on ice until used. • 3. Tested compounds and reference compounds spiking solution: • 0.5 mM test compounds spiking solution A: Added 10 μL of 10 mM test compounds stock solution to 190 μL DMSO. • 0.02 mM spiking solution B: Added 40 μL of spiking solution A to 960 μL of […] Sodium phosphate buffer with 0.5% BSA.
Pre-warmed the plasma and spiking solution B at 37° C. for 5 min. Added 10 μL of pre-warmed spiking solution B into the wells designated for all the time points (5, 15, 30, 45, 60 min).
For 0-min, added 400 μL of acetonitrile (ACN) containing the internal standard (IS) to the wells of 0-min plate and then added 90 μL of plasma. Added 90 μL of pre-warmed plasma into the wells designated for the time points (0, 5, 15, 30, 45, 60 min), and started timing. At 5, 15, 30, 45, 60 min, added 400 μL of ACN containing IS to the wells of corresponding plates, respectively, to stop the reaction. After quenching, shook the plates at the vibrator (IKA, MTS 2/4) for 10 min (600 rpm/min) and then centrifuged at 5594 g for 15 min (Thermo Multifuge×3R). Transferred 50 μL of the supernatant from each well into a 96-well sample plate containing 50 μL of ultra pure water (Millipore ZMQS50F01) for LC/MS analysis.

T1 sequence (Q93009 whole entry): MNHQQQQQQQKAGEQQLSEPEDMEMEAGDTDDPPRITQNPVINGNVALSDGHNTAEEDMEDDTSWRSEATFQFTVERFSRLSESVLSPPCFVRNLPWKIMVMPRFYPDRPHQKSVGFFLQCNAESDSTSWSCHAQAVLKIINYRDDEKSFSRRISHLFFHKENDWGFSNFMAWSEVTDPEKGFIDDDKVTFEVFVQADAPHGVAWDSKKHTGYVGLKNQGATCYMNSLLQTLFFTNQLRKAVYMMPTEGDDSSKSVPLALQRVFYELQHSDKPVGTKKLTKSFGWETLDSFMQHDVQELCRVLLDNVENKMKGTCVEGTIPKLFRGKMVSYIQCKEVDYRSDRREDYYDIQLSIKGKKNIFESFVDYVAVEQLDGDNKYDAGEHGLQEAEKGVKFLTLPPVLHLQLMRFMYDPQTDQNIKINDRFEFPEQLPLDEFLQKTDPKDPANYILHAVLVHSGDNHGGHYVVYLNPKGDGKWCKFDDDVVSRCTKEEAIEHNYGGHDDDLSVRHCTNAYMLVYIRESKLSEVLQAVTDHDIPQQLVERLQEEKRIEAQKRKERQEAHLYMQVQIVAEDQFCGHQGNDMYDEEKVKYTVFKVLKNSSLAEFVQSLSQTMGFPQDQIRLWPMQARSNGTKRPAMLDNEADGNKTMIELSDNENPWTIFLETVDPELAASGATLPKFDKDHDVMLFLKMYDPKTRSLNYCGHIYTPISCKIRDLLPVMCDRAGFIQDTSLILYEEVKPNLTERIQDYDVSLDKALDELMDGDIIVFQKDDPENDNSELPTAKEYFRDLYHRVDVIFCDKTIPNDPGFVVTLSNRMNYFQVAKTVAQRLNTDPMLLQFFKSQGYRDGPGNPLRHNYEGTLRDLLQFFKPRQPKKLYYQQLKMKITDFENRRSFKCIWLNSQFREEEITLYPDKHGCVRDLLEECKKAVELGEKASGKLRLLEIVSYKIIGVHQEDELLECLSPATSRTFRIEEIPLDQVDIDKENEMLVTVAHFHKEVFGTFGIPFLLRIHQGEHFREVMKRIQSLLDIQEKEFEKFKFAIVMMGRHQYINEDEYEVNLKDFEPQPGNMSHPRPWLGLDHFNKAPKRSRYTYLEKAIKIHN

Row | IC50 [1] | half-life at 1 µM [2] | half-life at 2 µM [3] | Plasma t1/2, min [3] | SMILES
1 | 100 to 1000 nM | 26.9 min | 0.0708 h |  | C=CC(=O)Nc1ccccc1N1CCC(C(=O)N2CCC(O)(Cn3cnc4cc(NC(=O)CCN5CCN(C)CC5)ccc4c3=O)CC2)C(c2ccccc2)C1 (centres unmarked) [Compound 102]
2 | 20 to 100 nM | 25.8 min | 3.77 h |  | CN1CCN(CCC(=O)Nc2ccc3c(=O)n(CC4(O)CCN(C(=O)[C@@H](CCCNC(=O)c5ccc6c(Cl)cc(-c7cnn(CC(F)(F)F)c7)nc6c5)Cc5ccccc5)CC4)cnc3c2)CC1 [Compound 20]
3 | > 1000 nM |  | 0.383 h |  | C=CC(=O)Nc1ccccc1-c1ccc(C(=O)N2CCC(O)(Cn3cnc4cc(NC(=O)CCN5CCN(C)CC5)ccc4c3=O)CC2)cc1 [Compound 24, N-(4′-(4-hydroxy-4-((7-(3-(4-methylpiperazin-1-yl)propanamido)-4-oxoquinazolin-3(4H)-yl)methyl)piperidine-1-carbonyl)biphenyl-2-yl)acrylamide]
4 | 20 to 100 nM |  | 1.53 h |  | O=C(NCCC[C@@H](Cc1ccccc1)C(=O)N1CCC(O)(Cn2cnc(NCCN3CCCC3)cc2=O)CC1)c1ccc2c(Cl)ccnc2c1 [Compound 13, N-(4-benzyl-5-(4-hydroxy-4-((6-oxo-4-(2-(pyrrolidin-1-yl)ethylamino)pyrimidin-1(6H)-yl)methyl)piperidin-1-yl)-5-oxopentyl)-4-chloroquinoline-7-carboxamide]
5 | 20 to 100 nM | 2.5 min |  |  | CN(C)CC(=O)Nc1ccc2c(=O)n(CC3(O)CCN(C(=O)C(CCCNC(=O)c4ccc5c(Cl)c6c(nc5c4)CCN(C)C6)Cc4ccccc4)CC3)cnc2c1 (centres unmarked) [Compound 32, N-(4-benzyl-5-(4-((7-(2-(dimethylamino)acetamido)-4-oxoquinazolin-3(4H)-yl)methyl)-4-hydroxypiperidin-1-yl)-5-oxopentyl)-10-chloro-2-methyl-1,2,3,4-tetrahydrobenzo[b][1,6]naphthyridine-7-carboxamide]
6 | > 1000 nM | 20 min |  |  | CN1CCN(CCn2cc3ncn(CC4(O)CCN(C(=O)C(CCCNC(=O)c5ccc6c(Cl)ccnc6c5)Cc5ccccc5)CC4)c(=O)c3n2)CC1 (centres unmarked) [Compound 27]
7 | 20 to 100 nM | 4.61 min |  |  | O=C(NCCCC(Cn1ccc(F)n1)C(=O)N1CCC(O)(Cn2cnc3ccccc3c2=O)CC1)c1ccc2c(Cl)c(C(=O)NC3CC3)cnc2c1 (centres unmarked)

Second part, the molecule before the results:

Row | SMILES | IC50 [1] | half-life at 1 µM [2] | half-life at 2 µM [3] | Plasma t1/2, min [3]
8 | CN1CCN(CCC(=O)Nc2ccc3c(=O)n(CC4(O)CCN(C(=O)C(CCCNC(=O)c5ccc6c(Cl)cc(C7CC7)nc6c5)Cc5ccccc5)CC4)cnc3c2)CC1 (centres unmarked) [Compound 22] | 20 to 100 nM | 18.3 min | 2.25 h | 
9 | O=C(CCN1CCNCC1)Nc1ccc2c(=O)n(CC3(O)CCN(C(=O)C(CCCNC(=O)c4ccc5c(Cl)ccnc5c4)Cc4ccccc4)CC3)cnc2c1 (centres unmarked) [Compound 61, N-(4-benzyl-5-(4-hydroxy-4-((4-oxo-7-(3-(piperazin-1-yl)propanamido)quinazolin-3(4H)-yl)methyl)piperidin-1-yl)-5-oxopentyl)-4-chloroquinoline-7-carboxamide] | 20 to 100 nM | 28.4 min | 3.22 h | 
10 | CN(C)CCCOc1ccc2c(=O)n(CC3(O)CCN(C(=O)C(CCCNC(=O)c4ccc5c(Cl)c(C(N)=O)cnc5c4)Cn4ccc(F)n4)CC3)cnc2c1 (centres unmarked) | < 20 nM | 131 min | 1.43 h | 
11 | CC(C)c1cnc2cc(C(=O)NCCN3CCC(C(=O)N4CCC(O)(Cn5cnc6cc(OCCN7CCNCC7)ccc6c5=O)CC4)C(c4ccccc4)C3)ccc2c1Cl (centres unmarked) [Compound 108] | < 20 nM | 14 min |  | ∞*
12 | CN(C)CCOc1ccc2c(=O)n(CC3(O)CCN(C(=O)[C@H](CCCNC(=O)c4ccc5c(Cl)cc(C6CC6)nc5c4)Cc4ccccc4)CC3)cnc2c1 [Compound 117] | 20 to 100 nM | 20.3 min |  | ∞*
13 | CN(C)CCCOc1ccc2c(=O)n(CC3(O)CCN(C(=O)[C@H](CCCNC(=O)c4ccc5c(Cl)cc(C6CC6)nc5c4)Cc4ccccc4)CC3)cnc2c1 | < 20 nM | 27.1 min |  | ∞*
14 | CN1CCN(CCOc2ccc3c(=O)n(CC4(O)CCN(C(=O)C(CCCNC(=O)c5ccc6c(Cl)ccnc6c5)Cc5ccccc5)CC4)cnc3c2)CC1 (centres unmarked) [Compound 30, N-(4-benzyl-5-(4-hydroxy-4-((7-(2-(4-methylpiperazin-1-yl)ethoxy)-4-oxoquinazolin-3(4H)-yl)methyl)piperidin-1-yl)-5-oxopentyl)-4-chloroquinoline-7-carboxamide] | 20 to 100 nM | 15.7 min | 112 h | 
15 | CN(C)CCC(=O)Nc1ccc2c(=O)n(CC3(O)CCN(C(=O)C4CCN(CCNC(=O)c5ccc6c(Cl)ccnc6c5)C[C@H]4c4ccccc4)CC3)cnc2c1 (some centres unmarked) [Compound 73] | 20 to 100 nM | 46.8 min | 3.19 h | 
16 | CN1CCN(CCC(=O)Nc2ccc3c(=O)n(CC4(O)CCN(C(=O)[C@@H](CCCNC(=O)c5ccc6c(Cl)ccnc6c5)Cc5ccccc5)CC4)cnc3c2)CC1 [Compound 59, (S)—N-(4-benzyl-5-(4-hydroxy-4-((7-(3-(4-methylpiperazin-1-yl)propanamido)-4-oxoquinazolin-3(4H)-yl)methyl)piperidin-1-yl)-5-oxopentyl)-4-chloroquinoline-7-carboxamide] | 20 to 100 nM |  | 1.32 h | 
17 | CN(C)CCCOc1ccc2c(=O)n(CC3(O)CCN(C(=O)[C@@H](CCCNC(=O)c4ccc5c(Cl)c6c(nc5c4)CCCC6)Cn4ccc(F)n4)CC3)cnc2c1 |  | 6.96 min | 2.12 h | 
18 | O=C(NCCCC(Cc1ccccc1)C(=O)N1CCC(O)(Cn2cnc3c(cnn3-c3ccc(F)cc3)c2=O)CC1)c1ccc2c(Cl)ccnc2c1 (centres unmarked) [Compound 6, N-(4-benzyl-5-(4-((1-(4-fluorophenyl)-4-oxo-1,4-dihydro-5H-pyrazolo[3,4-d]pyrimidin-5-yl)methyl)-4-hydroxypiperidin-1-yl)-5-oxopentyl)-4-chloroquinoline-7-carboxamide] | 20 to 100 nM | 1 min |  | 
19 | CN(C)CCCOc1ccc2c(=O)n(CC3(O)CCN(C(=O)C(CCCNC(=O)c4ccc5c(Cl)c6c(nc5c4)C(C)(C)NC6=O)Cc4ccccc4)CC3)cnc2c1 (centres unmarked) | > 1000 nM | 16.3 min |  | 
20 | CN(C)CCC(=O)Nc1ccc2c(=O)n(CC3(O)CCN(C(=O)C(CCCNC(=O)c4ccc5c(Cl)c6c(nc5c4)CN(C)CC6)Cc4ccccc4)CC3)cnc2c1 (centres unmarked) [Compound 40, N-(4-benzyl-5-(4-((7-(3-(dimethylamino)propanamido)-4-oxoquinazolin-3(4H)-yl)methyl)-4-hydroxypiperidin-1-yl)-5-oxopentyl)-5-chloro-2-methyl-1,2,3,4-tetrahydrobenzo[b][1,7]naphthyridine-8-carboxamide] | 20 to 100 nM | 7.4 min |  | 
